Measured values taken from US20240207265A1, “TREATMENT OF CNS DISEASES WITH sGC STIMULATORS” (Tisento Therapeutics Inc., priority 2021, published 2024).

Key:
[1] = test system: sGC enzyme; test: cGMP GloSensor cell-based assay, 384-well format (HEK293); set-up: species or system human; settings: HEK293 GloSensor 40F cGMP cells, 10 μM DETA-NONOate, geometrical mean; read-out: Glo EC50
From the text: Human embryonic kidney cells (HEK293) cells expressing GloSensor™ 40F cGMP (Part No: CS182801, Promega) were used to evaluate the activity of test compounds. The luminescent biosensors (engineered luciferase) that were incorporated into these cells detect cGMP formed by the compounds stimulating the sGC enzyme and emit luminescence.
cGMP GloSensor cells were maintained in Dulbecco's Modification of Eagle's Medium (DMEM) supplemented with fetal bovine serum (FBS, 10% final) and hygromycine (200 ug/ml). The day before assay, cells were plated in DMEM with 10% FBS in a 50 μL volume at a density of 1.5×10^4 cells/well in a poly-D-lysine coated 384-well flat white-bottom plate (Corning Cat No 35661). Cells were incubated overnight at 37° C. in a humidified chamber with 5% CO2. The next day, medium was removed and cells were replaced with 40 ul/well of GloSensor™, 2 mM (Promega Cat No E1291). Cells were treated for 90 minutes at 25° C. to allow the substrate to equilibrate in the cells. Test compounds and Diethylenetriamine NONOate (DETA-NONOate) was diluted to 3 mM (20×) in serum-free CO2 independent medium and serially diluted at 4× dilutions to create 5× dose curve from which 10 ul was added to the wells (x μM concentration for test compound solution and 10 μM concentration for DETA-NONOate solution; wherein x is one of the following final concentrations: 30 μM, 7.5 μM, 1.9 μM, 469 nM, 117 nM, 29.3 nM, 7.3 nM, 1.83 nM, 0.46 nM, 0.11 nM, 0.03 nM) For the kinetics studies, luminescense was measured right away for 0.2 sec per well with Envision (Perkin Elmer). For endpoint SAR screening, data were collected after 55 min incubation at room temperature.
(§1) Concentration response data were analyzed using a 4-parameter fit (log (agonist) vs. response-variable slope). The EC50 was interpolated from the curve fit and is defined as the concentration at which the compound elicits 50% of its maximal response. When the experiment was carried out multiple times for a given compound, the geometrical mean of all experiments is reported.

[2] = Rat cerebrospinal fluid (CSF) pharmacokinetics; assay type: in vivo; settings: male, Sprague-Dawley; rat CSF/unbound plasma, PO 3 mg/kg
Method: PK in rats was determined following oral dosing. For the oral (PO) experiments, a group of 6 male Sprague-Dawley rats with an indwelling catheter placed in the cisterna magna were used. The PO group was dosed with 3.0, or 10 mg/kg of a compound formulated as a solution in PEG400 or suspension in 0.5% Tween 80 and 0.5% Methylcellulose in water. PO doses were administered by oral gavage and delivered to the stomach using a syringe and gavage tube. Following oral dosage administration, the gavage tube was flushed with approximately 0.5 mL of water to ensure complete delivery of the full dose.
Plasma samples were collected as follows: samples of CSF and blood were collected at 1 hour, 2, and optionally at 4 hours post-dosing. CSF samples (0.05 mL) were collected through the intracisternal catheter. Blood samples (0.25 mL) were collected through tail nick sampling. These samples were kept on ice until processed for plasma. Blood samples were centrifuged at 3200 rpm for 5 minutes at approximately 5° C. within 1 hour of collection. Plasma was directly transferred to individual Eppendorf tubes (0.125 mL). Plug caps were placed on the tubes and the tubes frozen at approximately −70° C. and stored until analysis. Plasma and CSF was collected and analyzed for the presence of a compound.
The compound in question and the internal standard were extracted from plasma by precipitation and from CSF by either precipitation or dilution. Samples were analyzed using liquid chromatography (LC) with tandem mass spectrometric detection (MS/MS) using electrospray ionization. The standard curve ranged from 0.1 to 1000 ng/mL. Results of the compounds described herein in this assay are illustrated in Table G below (for a 10 mg/kg dose and/or 3 mg/kg of the compound). Compound concentrations from several animals were combined to give the geometrical mean at each specific dosage and timepoint.
Kp,uu is defined as the concentration ratio of unbound drug in CSF to unbound drug in plasma. Unbound drug in plasma (or free plasma concentration) is calculated by multiplying the total plasma concentration by the unbound fraction as determined by plasma protein binding. The CSF concentration is then divided by the free plasma concentration to determine the Kp,uu. (See e.g., Di et al., J. Med. Chem., 56, 2-12 (2013))

[3] = test system: sGC; test: cGMP neuronal cell-based assay (rat primary neurons); settings: rat primary hippocampal neurons, DETA-NO 10 μM or 30 μM, cGMP by LC-MS/MS; read-out: sGC Neuron EC50
Method: Rat primary neurons were isolated from fetuses of 18-day pregnant Sprague-Dawley females. The fetuses were collected in Hanks' balanced salt solution (HBSS) and brains were rapidly removed. The cerebral hippocampi were isolated and mechanically fragmented. Further tissue digestion was performed with 0.25% (wt/vol) trypsin solution in HBSS without Ca2+ and Mg2+ for 15 min at 37° C. After trypsination, cells were washed and resuspended in neurobasal medium supplemented with 0.5 mM L-glutamine, 12.5 uM glutamic acid, 2% B-27 and 100 U/mL penicillin, and 100 μg/mL streptomycin. Cells were plated at a density of 26×10^3 or 3×10^4 or 4×10^4 cells/well in a poly-D-lysine coated 384-well flat clear-bottom plate (Corning Cat No 354662). Cells were incubated 6-7 days at 37° C. in a humidified chamber with 5% CO2. Media was removed and cells were washed 1× with HBSS containing Ca2+ and Mg2+, and replaced with 40 uL HBSS containing 0.5 mM IBMX, and incubated for 15 minutes at 37° C. 10 uL of a 5× stock of test compounds with diethylenetriamine NONOate (DETA-NO) was added. Final concentration of DETA-NO was either 10 μM or 30 μM. Cells were incubated for 20 min at 37° C. Medium was removed, 50 uL of ice-cold 10% acetic acid was added, and incubated for 60 minutes at 4° C. Following centrifugation at 4° C. for 5 minutes at 1000×g to pellet cell debris, the supernatant was aspirated to a clean plate and the samples were analyzed for cGMP content. cGMP concentrations were determined from each sample using LC-MS/MS.
as §1

Structure (SMILES)	EC50 [1] [nM]	Kp uu at 1 h [2]	Kp uu at 2 h [2]	Kp uu at 4 h [2]	EC50 [3] [nM]
Oc1nc(-c2cn3ccnc3c(Cc3cccc(F)c3)n2)ncc1F [Compound I-1, 5-fluoro-2-(8-(3-fluorobenzyl)imidazo[1,2-a]pyrazin-6-yl)pyrimidin-4-ol]	100 to 1000	≤ 1	1 to 2	≤ 1	100 to 1000
Cc1c(F)cc(Cc2nc(-c3ncc(F)c(O)n3)cn3ccnc23)cc1F [Compound I-3, 5-Fluoro-2-(8-(3,5-difluoro-4-methylbenzyl)imidazo[1,2-a]pyrazin-6-yl)pyrimidin-4-ol]	≤ 100	–	–	–	≤ 100
Cc1ccc(Cc2nc(-c3ncc(F)c(O)n3)cn3ccnc23)cc1F [Compound I-6, 5-Fluoro-2-(8-(3-fluoro-4-methylbenzyl)imidazo[1,2-a]pyrazin-6-yl)pyrimidin-4-ol]	≤ 100	–	–	–	≤ 100
Oc1nc(-c2cn3ccnc3c(Cc3cc(F)cc(F)c3)n2)ncc1F [Compound I-7, 2-(8-(3,5-Difluorobenzyl)imidazo[1,2-a]pyrazin-6-yl)-5-fluoropyrimidin-4-ol]	100 to 1000	–	–	–	≤ 100
Cc1cnc(-c2cn3ccnc3c(Cc3ccccc3F)n2)nc1O [Compound I-8, 2-(8-(2-fluorobenzyl)imidazo[1,2-a]pyrazin-6-yl)-5-methylpyrimidin-4-ol]	> 1000	–	–	–	–
Oc1nc(-c2cn3c(F)cnc3c(Cc3ccccc3F)n2)ncc1F [Compound I-9]	100 to 1000	–	–	–	≤ 100
Oc1nc(-c2cn3ncnc3c(Cc3cccc(F)c3F)n2)ncc1F [Compound I-10, 2-(8-(2,3-Difluorobenzyl)-[1,2,4]triazolo[1,5-a]pyrazin-6-yl)-5-fluoropyrimidin-4-ol]	100 to 1000	–	–	–	–
Oc1nc(-c2cn3ncnc3c(Cc3cccc(F)c3)n2)ncc1F [Compound I-11, 5-Fluoro-2-(8-(3-fluorobenzyl)-[1,2,4]triazolo[1,5-a]pyrazin-6-yl)pyrimidin-4-ol]	100 to 1000	–	–	–	–
Oc1nc(-c2cn3ncnc3c(Cc3cc(F)ccc3F)n2)ncc1F [Compound I-12, 2-(8-(2,5-Difluorobenzyl)-[1,2,4]triazolo[1,5-a]pyrazin-6-yl)-5-fluoropyrimidin-4-ol]	100 to 1000	–	–	–	≤ 100
Oc1nc(-c2cn3ncnc3c(Cc3cc(F)cc(F)c3)n2)ncc1F [Compound I-13, 2-(8-(3,5-Difluorobenzyl)-[1,2,4]triazolo[1,5-a]pyrazin-6-yl)-5-fluoropyrimidin-4-ol]	100 to 1000	–	–	–	–
